In PubChem BioAssay AID2060906 (Molecular Pharmacology Branch, DTP, NCI, 2025):

Test system: 485176-168-R4-J1-PDC complex spheroid growth
Assay: Anticancer human tumor 485176-168-R4-J1-PDC patient-derived pancreatic adenocarcinoma cell line growth inhibition [RAS]
Conditions: for IC50: curve of first compound; for viability, T/C: stronger effect = lower value
Summary of the method: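 Multi-cell-type spheroids: tumor cells plus HUVEC endothelial cells and mesenchymal stem cells. RAS-pathway inhibitors were combined with targeted agents, each dosed in half-log steps down from clinical Cmax, or from 10 microM when Cmax was unknown.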
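Further: spheroids exposed to compounds for seven days before readout.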
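Wherever viability, T/C is given: luminescence viability expressed relative to DMSO vehicle wells set as 100%.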

Structure (SMILES): CCN1CCN(Cc2ccc(Nc3ncc(F)c(-c4cc(F)c5nc(C)n(C(C)C)c5c4)n3)nc2)CC1 + C#Cc1c(F)ccc2cc(O)cc(-c3ncc4c(N5CC6CCC(C5)N6)nc(OCC56CCCN5CC(F)C6)nc4c3F)c12
- IC50 (second compound 0.0316 µM): > 1000 nM
- IC50 (second compound 0.1 µM): > 1000 nM
- IC50 (second compound 0.316 µM): > 1000 nM
- IC50 (second compound 1 µM): > 1000 nM
- IC50 (second compound 3.16 µM): > 1000 nM
- IC50 (second compound 10 µM): > 1000 nM
- viability, T/C (second compound 0.0316 µM, first compound 0.00316 µM): 91.1%
- viability, T/C (second compound 0.0316 µM, first compound 0.01 µM): 83.4%
- viability, T/C (second compound 0.0316 µM, first compound 0.0316 µM): 101%
- viability, T/C (second compound 0.0316 µM, first compound 0.1 µM): 100%
- viability, T/C (second compound 0.0316 µM, first compound 0.316 µM): 73.9%
- viability, T/C (second compound 0.0316 µM, first compound 1 µM): 64.9%
- viability, T/C (second compound 0.1 µM, first compound 0.00316 µM): 117%
- viability, T/C (second compound 0.1 µM, first compound 0.01 µM): 109%
- viability, T/C (second compound 0.1 µM, first compound 0.0316 µM): 79.7%
- viability, T/C (second compound 0.1 µM, first compound 0.1 µM): 85.1%
- viability, T/C (second compound 0.1 µM, first compound 0.316 µM): 78.8%
- viability, T/C (second compound 0.1 µM, first compound 1 µM): 55.4%
- viability, T/C (second compound 0.316 µM, first compound 0.00316 µM): 97.1%
- viability, T/C (second compound 0.316 µM, first compound 0.01 µM): 95.6%
- viability, T/C (second compound 0.316 µM, first compound 0.0316 µM): 90.7%
- viability, T/C (second compound 0.316 µM, first compound 0.1 µM): 104%
- viability, T/C (second compound 0.316 µM, first compound 0.316 µM): 84.3%
- viability, T/C (second compound 0.316 µM, first compound 1 µM): 63.9%
- viability, T/C (second compound 1 µM, first compound 0.00316 µM): 96.8%
- viability, T/C (second compound 1 µM, first compound 0.01 µM): 101%
- viability, T/C (second compound 1 µM, first compound 0.0316 µM): 101%
- viability, T/C (second compound 1 µM, first compound 0.1 µM): 86.8%
- viability, T/C (second compound 1 µM, first compound 0.316 µM): 72%
- viability, T/C (second compound 1 µM, first compound 1 µM): 70.1%
- viability, T/C (second compound 3.16 µM, first compound 0.00316 µM): 110%
- viability, T/C (second compound 3.16 µM, first compound 0.01 µM): 92.8%
- viability, T/C (second compound 3.16 µM, first compound 0.0316 µM): 81.5%
- viability, T/C (second compound 3.16 µM, first compound 0.1 µM): 92.8%
- viability, T/C (second compound 3.16 µM, first compound 0.316 µM): 77.5%
- viability, T/C (second compound 3.16 µM, first compound 1 µM): 61.3%
- viability, T/C (second compound 10 µM, first compound 0.00316 µM): 103%
- viability, T/C (second compound 10 µM, first compound 0.01 µM): 95.5%
- viability, T/C (second compound 10 µM, first compound 0.0316 µM): 84.4%
- viability, T/C (second compound 10 µM, first compound 0.1 µM): 79.6%
- viability, T/C (second compound 10 µM, first compound 0.316 µM): 96.6%
- viability, T/C (second compound 10 µM, first compound 1 µM): 61.6%
